Columns and labels:
NCI-H2228 = assay: Antiproliferative activity against human NCI-H2228 cells assessed as reduction in cell viability incubated for 72 hrs by MTT assay; type: functional, cell-based; conditions: NCI-H2228, 72 h
KARPAS-299 = assay: Antiproliferative activity against human KARPAS299 cells assessed as reduction in cell viability incubated for 72 hrs by MTT assay; type: functional, cell-based; conditions: KARPAS-299, 72 h
HCC78 = assay: Antiproliferative activity against human HCC78 cells assessed as reduction in cell viability incubated for 72 hrs by MTT assay; type: functional, cell-based; conditions: HCC78, 72 h
A549 [1] = assay: Antiproliferative activity against human A549 cells harbouring […] mutant assessed as reduction in cell viability incubated for 72 hrs by MTT assay; type: functional, cell-based; conditions: A549, 72 h
A549 [2] = assay: cells; conditions: Homo sapiens, A549, 72 h
HT-29 = assay: cells; conditions: Homo sapiens, HT-29, 72 h
Description: Antiproliferative activity against human HT-29 cells assessed as reduction in cell viability incubated for 72 hrs by MTT assay

[3] = molecular target: Hepatocyte growth factor receptor (Homo sapiens, UniProt P08581); assay: Inhibition of recombinant human N-terminal GST-tagged MET (956 to 1390 residues) cytoplasmic domain expressed in baculovirus expression system using Srctide as substrate incubated for 1 hr by mobility shift assay
Hepatocyte growth factor receptor, sequence (P08581 whole entry, the tested form may be a part): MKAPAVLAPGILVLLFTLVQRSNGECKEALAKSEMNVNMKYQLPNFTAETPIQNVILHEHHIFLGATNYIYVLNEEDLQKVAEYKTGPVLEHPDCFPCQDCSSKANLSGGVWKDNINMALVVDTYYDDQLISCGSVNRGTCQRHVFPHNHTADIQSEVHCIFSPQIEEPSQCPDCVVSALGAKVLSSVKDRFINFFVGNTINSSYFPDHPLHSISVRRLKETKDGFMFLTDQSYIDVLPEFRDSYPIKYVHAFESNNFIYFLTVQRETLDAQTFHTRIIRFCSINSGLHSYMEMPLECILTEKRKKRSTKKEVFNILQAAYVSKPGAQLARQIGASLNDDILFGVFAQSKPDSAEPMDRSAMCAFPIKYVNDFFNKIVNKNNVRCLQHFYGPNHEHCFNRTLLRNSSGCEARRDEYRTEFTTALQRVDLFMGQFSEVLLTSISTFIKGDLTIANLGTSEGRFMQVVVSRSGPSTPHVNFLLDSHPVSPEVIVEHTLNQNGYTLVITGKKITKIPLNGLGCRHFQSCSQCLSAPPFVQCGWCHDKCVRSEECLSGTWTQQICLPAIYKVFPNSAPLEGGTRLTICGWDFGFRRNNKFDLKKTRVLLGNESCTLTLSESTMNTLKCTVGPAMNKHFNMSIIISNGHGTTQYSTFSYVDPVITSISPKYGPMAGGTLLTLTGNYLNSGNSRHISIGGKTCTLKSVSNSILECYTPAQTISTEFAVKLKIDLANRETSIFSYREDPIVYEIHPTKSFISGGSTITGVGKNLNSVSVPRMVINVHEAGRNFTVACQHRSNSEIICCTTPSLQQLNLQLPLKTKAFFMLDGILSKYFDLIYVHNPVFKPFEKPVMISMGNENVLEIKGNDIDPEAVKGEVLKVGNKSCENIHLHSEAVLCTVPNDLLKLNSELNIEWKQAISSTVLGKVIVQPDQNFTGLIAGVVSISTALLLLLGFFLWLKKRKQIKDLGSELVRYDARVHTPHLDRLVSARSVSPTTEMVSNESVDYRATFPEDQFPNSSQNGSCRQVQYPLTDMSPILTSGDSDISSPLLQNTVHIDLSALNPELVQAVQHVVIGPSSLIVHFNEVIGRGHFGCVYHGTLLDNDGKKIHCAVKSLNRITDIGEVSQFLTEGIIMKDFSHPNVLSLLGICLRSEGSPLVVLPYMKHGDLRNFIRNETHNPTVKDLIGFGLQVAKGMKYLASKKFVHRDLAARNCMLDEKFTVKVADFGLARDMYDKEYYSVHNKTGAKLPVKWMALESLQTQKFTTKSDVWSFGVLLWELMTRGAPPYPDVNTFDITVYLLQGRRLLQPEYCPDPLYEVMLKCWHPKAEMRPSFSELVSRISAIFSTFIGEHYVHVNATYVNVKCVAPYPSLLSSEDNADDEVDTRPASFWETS

Row | Structure (SMILES) | IC50 (NCI-H2228) [nM] | IC50 (KARPAS-299) [nM] | IC50 (HCC78) [nM] | IC50 (A549 [1]) [nM] | IC50 (A549 [2]) [µM] | IC50 (HT-29) [µM] | IC50 [3] [nM]
1 | COc1cc(NC(=O)C2CCN(C(=O)OC(C)(C)C)CC2)ccc1Nc1ncc(Cl)c(Nc2ccccc2NC(C)=O)n1 | 1730 | 510 | 610 | 1370 | 5.31 | > 10 | –
2 | COc1cc(NC2CCCCC2)ccc1Nc1ncc(Cl)c(Nc2ccccc2NC(C)=O)n1 | 570 | 870 | 390 | 2170 | > 10 | 4.73 | –
3 | COc1cc(NC(=O)N2CCC2)ccc1Nc1ncc(Cl)c(Nc2ccccc2NC(C)=O)n1 | 340 | 390 | 560 | 1160 | 2.45 | 6.77 | –
4 | COc1cc(N2CCC2=O)ccc1Nc1ncc(Cl)c(Nc2ccccc2NC(C)=O)n1 | 740 | 660 | 230 | 650 | 2.15 | 5.57 | –
5 | COc1cc(NC(=O)N2CCC(C(=O)O)CC2)ccc1Nc1ncc(Cl)c(Nc2ccccc2NC(C)=O)n1 | 1850 | 1080 | 390 | 970 | > 10 | 3.61 | –
6 | COc1cc(NC(=O)N2CCSCC2)ccc1Nc1ncc(Cl)c(Nc2ccccc2NC(C)=O)n1 | 570 | 210 | 170 | 2360 | > 10 | > 10 | –
7 | COc1cc(NC(=O)N2CCCCC2)ccc1Nc1ncc(Cl)c(Nc2ccccc2NC(C)=O)n1 | 640 | 240 | 210 | 970 | > 10 | > 10 | –
8 | COc1cc(NC(=O)N2CCN(C(=O)OC(C)(C)C)CC2)ccc1Nc1ncc(Cl)c(Nc2ccccc2NC(C)=O)n1 | 930 | 1120 | 230 | 1170 | 2.31 | 3.11 | –
9 | COc1cc(NC(=O)N2CCN(C)CC2)ccc1Nc1ncc(Cl)c(Nc2ccccc2NC(C)=O)n1 | 170 | 49 | 390 | 440 | 4.59 | > 10 | –
10 | COc1cc(NC(=O)N[C@H]2CC[C@H](C)CC2)ccc1Nc1ncc(Cl)c(Nc2ccccc2NC(C)=O)n1 | 530 | 830 | 410 | 2410 | 4.12 | > 10 | –
11 | CCOC(=O)[C@@H]1CCCN(C(=O)Nc2ccc(Nc3ncc(Cl)c(Nc4ccccc4NC(C)=O)n3)c(OC)c2)C1 | 600 | 590 | 670 | 1550 | 2.57 | > 10 | –
12 | COc1cc(NC(=O)NCCCN2CCOCC2)ccc1Nc1ncc(Cl)c(Nc2ccccc2NC(C)=O)n1 | 780 | 490 | 270 | 1100 | 3.1 | > 10 | –
13 | Cc1cc(Nc2ncc(Cl)c(Nc3ccccc3S(=O)(=O)C(C)C)n2)c(OC(C)C)cc1C1CCNCC1 [CERITINIB] | 45 | 37 | 39 | 510 | 1.43 | 1.03 | 271
14 | COc1cc(NC2=CC(=O)CCC2)ccc1Nc1ncc(Cl)c(Nc2ccccc2NC(C)=O)n1 | 1640 | 1030 | 230 | 1110 | 5.19 | > 10 | –
15 | COC(=O)C1=C(Nc2ccc(Nc3ncc(Cl)c(Nc4ccccc4NC(C)=O)n3)c(OC)c2)CCC1 | 2940 | 4300 | 870 | 1810 | > 10 | > 10 | –
16 | COc1cc(NC(=O)NC2CCN(C(=O)OC(C)(C)C)CC2)ccc1Nc1ncc(Cl)c(Nc2ccccc2NC(C)=O)n1 | 840 | 1020 | 170 | 1830 | > 10 | 5.51 | –
17 | COc1cc(NC(=O)N2CCC(C)CC2)ccc1Nc1ncc(Cl)c(Nc2ccccc2NC(C)=O)n1 | 610 | 170 | 530 | 1270 | > 10 | 3.25 | –
18 | COc1cc(N2CCCCC2=O)ccc1Nc1ncc(Cl)c(Nc2ccccc2NC(C)=O)n1 | 530 | 310 | 660 | 1070 | > 10 | > 10 | –
19 | CCOC(=O)C1CCN(C(=O)Nc2ccc(Nc3ncc(Cl)c(Nc4ccccc4NC(C)=O)n3)c(OC)c2)CC1 | 1210 | 450 | 870 | 940 | 1.72 | > 10 | –
20 | COc1cc(NC(=O)NC2CCCC2)ccc1Nc1ncc(Cl)c(Nc2ccccc2NC(C)=O)n1 | 470 | 840 | 610 | 740 | > 10 | 6.57 | –
21 | COc1cc(NC(=O)N[C@H]2CC[C@H](O)CC2)ccc1Nc1ncc(Cl)c(Nc2ccccc2NC(C)=O)n1 | 550 | 340 | 95 | 1230 | 2.3 | > 10 | –
22 | COc1cc(NC(=O)NCCCN2CCCC2)ccc1Nc1ncc(Cl)c(Nc2ccccc2NC(C)=O)n1 | 720 | 290 | 110 | 1020 | 2.97 | > 10 | –
23 | COc1cc(NC(=O)NC2CC2)ccc1Nc1ncc(Cl)c(Nc2ccccc2NC(C)=O)n1 | 810 | 890 | 870 | 710 | > 10 | > 10 | –
24 | COc1cc(NC2CCCC2)ccc1Nc1ncc(Cl)c(Nc2ccccc2NC(C)=O)n1 | 970 | 1050 | 670 | 1020 | > 10 | > 10 | –
25 | COc1cc(NC(=O)NN2CCOCC2)ccc1Nc1ncc(Cl)c(Nc2ccccc2NC(C)=O)n1 | 230 | 340 | 310 | 1490 | > 10 | 2.25 | –
26 | COc1cc(N2C(=O)CCC2=O)ccc1Nc1ncc(Cl)c(Nc2ccccc2NC(C)=O)n1 | 630 | 210 | 390 | 610 | > 10 | > 10 | –
27 | COc1cc(NC(=O)NC2CCCCC2)ccc1Nc1ncc(Cl)c(Nc2ccccc2NC(C)=O)n1 | 460 | 720 | 510 | 1540 | > 10 | > 10 | –
28 | COc1cc(NC(=O)N2CC(O)C2)ccc1Nc1ncc(Cl)c(Nc2ccccc2NC(C)=O)n1 | 730 | 270 | 490 | 1070 | > 10 | 4.15 | –
29 | CCOC(=O)C1=C(Nc2ccc(Nc3ncc(Cl)c(Nc4ccccc4NC(C)=O)n3)c(OC)c2)CCC1 | 2530 | 5040 | 920 | 3130 | > 10 | > 10 | –

Reference: ChEMBL document CHEMBL4396963, “An exploration of solvent-front region high affinity moiety leading to novel potent ALK & ROS1 dual inhibitors with mutant-combating effects” (Bioorg Med Chem, 2019)
